Measured values: patent US9168288B2, “Methods for treating disorders of the gastrointestinal tract using a GLP-1 agonist” (Mount Sinai Hospital, priority 2010, dated 2015)

Experiments:
Type in all cases: in vivo
[1] = system: female wild-type mice on the Balb/c genetic background; experiment: Example 5: low dose Liraglutide (30 or 50 μg/kg BID s.c., one week), large intestine size and body weight, Balb/c mice; conditions: Liraglutide 30 μg/kg BID s.c. 7 days vs PBS
Text: FIGS. 18A-18D illustrate that doses of Liraglutide lower than those that have shown glucose lowering or cardioprotective effects in rodents [Rolin B, et al, 2002; Noyan-Ashraf M H, et al, 2009; Porter D W et al, 2010; Irwin N et al, 2010; and Gault V A et al, 2011] are still able to increase large intestine size (large intestine weight and length) in wild-type mice compared to PBS-treated mice. FIGS. 18A-18D also illustrate that Liraglutide treatment can increase large intestine size (large intestine length and weight) in wild-type mice on the Balb/c genetic background compared to control-treated mice. All mice were 9-week old female wild-type mice on the Balb/c genetic background. All mice were maintained on a standard rodent chow diet and normal drinking water. Mice were given s.c. injections of either phosphate buffered saline (PBS), 30 μg/kg of Liraglutide (LG) BID, or 50 μg/kg of LG BID for one week. Injections were administered using a 31 g insulin syringe with an 8 mm long needle and in a final volume that ranged between 60-120 μl. Body weights and food intake were determined daily. […] The large intestine was removed and its length was determined by measuring with a ruler placed on a horizontal surface. Luminal contents were removed from the large intestine by flushing with ice-cold PBS using a 60 cc syringe attached to a p200 pipette tip. Mesenteric fat was dissected away from the large intestine. The large intestine was blotted to remove excess PBS and then weighed. Statistical analyses were done by one-way ANOVA with Bonferroni's Multiple Comparison Post-Test using GraphPad Prism software (version 4).
All mice were 9-week old female wild-type mice on the Balb/c genetic background. All mice were maintained on a standard rodent chow diet and normal drinking water. Mice were given s.c. injections of either phosphate buffered saline (PBS), 30 μg/kg of Liraglutide (LG) BID, or 50 μg/kg of LG BID for one week. […] Body weights and food intake were determined daily. […]

[2] = system: WT female mice on the C57B1/6 genetic background; experiment: Example 3: efficacy of GLP-1 receptor agonists administered once per day (body weight, blood glucose, pancreas, small bowel, colon)
Protocol: All mice used in the study were 10-week old WT female mice on the C57B1/6 genetic background. The mice were maintained on regular drinking water and a standard rodent chow diet.
All injections were given once per day, and were administered ip using a 31 g insulin syringe with an 8 mm long needle in a final volume that ranged between 84-125 μl. The body weight and food intake were determined daily. Non-fasting blood glucose levels were measured using a hand-held glucometer on day 1 (prior to the first injection), day 8, and day 15 (day of sacrifice). […] The entire pancreas was removed and weighed. The entire small bowel was removed and then suspended vertically with a 1 g weight attached to the distal portion of the small bowel (to provide uniform tension). Small bowel length was determined using a vertical ruler and then flushed with ice-cold PBS, blotted dry and weighed. The entire colon was removed and colon length was determined by measuring with a ruler placed on a horizontal surface. The colon was then flushed with ice-cold PBS, blotted dry and weighed. All statistical analyses were done by one-way ANOVA with Bonferroni's Multiple Comparison Post-Test using GraphPad Prism software (version 4), n=4 mice/group.

[3] = system: wild-type female C57B1/6 mice on regular drinking water or 3% DSS; experiment: Example 5: low dose Liraglutide (25 or 50 μg/kg BID s.c., one week), small intestine size, body weight, blood glucose; conditions: C57B1/6, regular water or 3% DSS
Protocol: All mice were 10-week old wild-type female mice on the C57B1/6 genetic background. Mice were maintained on a standard rodent chow diet and either regular drinking water or water supplemented with 3% DSS for a total of one week. Mice were given subcutaneous injections of either phosphate buffered saline (PBS), 25 μg/kg of Liraglutide (LG) BID, or 50 μg/kg of LG BID for one week. PBS or LG injections commenced at the same time that mice were started on normal drinking water or water supplemented with 3% DSS. Injections were administered using a 31 g insulin syringe with an 8 mm long needle and in a final volume that ranged between 85-110 μl. Body weights, food intake, and water intake were determined daily. […] Small intestines were removed and then suspended vertically with a 1 g weight attached to the distal portion of the small intestine (to provide uniform tension). Small intestine length was determined using a vertical ruler. Luminal contents were removed from the small bowel by flushing with ice-cold PBS using a 60 cc syringe attached to a p200 pipette tip. Mesenteric fat and pancreatic tissue were dissected away from the small intestine. The small intestine was blotted to remove excess PBS and then weighed. Statistical analyses were done by one-way ANOVA with Bonferroni's Multiple Comparison Post-Test using GraphPad Prism software (version 4).
All mice were 10-week old female wild-type mice on the C57B1/6 genetic background. Mice were maintained on a standard rodent chow diet and either regular drinking water or water supplemented with 3% DSS for a total of one week. Mice were given s.c. injections of either phosphate buffered saline (PBS), 25 μg/kg of Liraglutide (LG) BID, or 50 μg/kg of LG BID for one week. PBS or LG injections commenced at the same time that mice were started on normal drinking water or water supplemented with 3% DSS. Injections were administered using a 31 g insulin syringe with an 8 mm long needle and in a final volume that ranged between 85-110 μl. Body weights, food intake, and water intake were determined daily. Blood glucose levels were measured on the first day of the study and just prior to sacrifice. Statistical analyses were done by one-way ANOVA with Bonferroni's Multiple Comparison Post-Test using GraphPad Prism software (version 4). n=5 mice/group.

[4] = Liraglutide once a day ip for two weeks (LG qd 2, 75 μg/kg) vs PBS
[5] = Liraglutide 25 μg/kg BID s.c. 7 days vs PBS, listed as 3% DSS/Liguratide
[6] = Liraglutide 25 μg/kg BID s.c. 7 days vs PBS, listed as liraglutide
[7] = Liraglutide 50 μg/kg BID s.c. 7 days vs PBS
[8] = Liraglutide 50 μg/kg BID s.c. 7 days vs PBS, listed as 3% DSS/Liguratide
[9] = Liraglutide 50 μg/kg BID s.c. 7 days vs PBS, listed as liraglutide

Compound: CCCCCCCCCCCCCCCC(=O)N[C@@H](CCC(=O)NCCCC[C@H](NC(=O)[C@H](C)NC(=O)[C@H](C)NC(=O)[C@H](CCC(N)=O)NC(=O)CNC(=O)[C@H](CCC(=O)O)NC(=O)[C@H](CC(C)C)NC(=O)[C@H](Cc1ccc(O)cc1)NC(=O)[C@H](CO)NC(=O)[C@H](CO)NC(=O)[C@@H](NC(=O)[C@H](CC(=O)O)NC(=O)[C@H](CO)NC(=O)[C@@H](NC(=O)[C@H](Cc1ccccc1)NC(=O)[C@@H](NC(=O)CNC(=O)[C@H](CCC(=O)O)NC(=O)[C@H](C)NC(=O)[C@@H](N)Cc1cnc[nH]1)[C@@H](C)O)[C@@H](C)O)C(C)C)C(=O)N[C@@H](CCC(=O)O)C(=O)N[C@@H](Cc1ccccc1)C(=O)N[C@H](C(=O)N[C@@H](C)C(=O)N[C@@H](Cc1c[nH]c2ccccc12)C(=O)N[C@@H](CC(C)C)C(=O)N[C@H](C(=O)N[C@@H](CCCNC(=N)N)C(=O)NCC(=O)N[C@@H](CCCNC(=N)N)C(=O)NCC(=O)O)C(C)C)[C@@H](C)CC)C(=O)O [Liraglutide]
- decrease body weight (final body weight) [1]: no difference
- decrease body weight (final body weight) ([1]; listed as 3% DSS/Liguratide): No
- decrease body weight (final body weight) ([1]; listed as liraglutide): no difference
- non-fasting blood glucose levels ([2]; Liraglutide 75 μg/kg ip once a day for one week vs PBS): does not alter
- non-fasting blood glucose levels ([2]; Liraglutide 75 μg/kg ip once a day for two weeks vs PBS): significantly increased
- body weight ([2]; Liraglutide 75 μg/kg ip once per day for 7 days (LG qd 1) vs PBS): do not have a significant effect
- body weight ([2]; Liraglutide 75 μg/kg ip once per day for 14 days (LG qd 2) vs PBS): do not have a significant effect
- pancreas weight per gram of body weight [2, 4]: significantly increases
- total pancreas weight [2, 4]: significantly increases
- increase blood glucose (blood glucose level) ([3]; Liraglutide 25 μg/kg BID s.c. 7 days vs PBS): no difference
- decrease body weight (final body weight) [3, 5]: No
- increase blood glucose (blood glucose level) [3, 5]: No
- decrease body weight (final body weight) [3, 6]: no difference
- increase blood glucose (blood glucose level) [3, 6]: no difference
- decrease body weight (final body weight) [3, 7]: no difference
- increase blood glucose (blood glucose level) [3, 7]: no difference
- decrease body weight (final body weight) [3, 8]: No
- increase blood glucose (blood glucose level) [3, 8]: No
- decrease body weight (final body weight) [3, 9]: no difference
- increase blood glucose (blood glucose level) [3, 9]: no difference
